Experiments:
26 month-old mice = assay: Quantikine ELISAs for mouse CXCL1 and CXCL13 in plasma of aged mice; type: in vivo; conditions: 50 mg/kg BID P.O. one week, p<0.05
Procedure: The mice were handled in accordance with principles and guidelines established by the “Guide for the Care and Use of Laboratory Animals” and overseen by the BioAge Lab's institutional animal care and use committee (IACUC). Mice were housed conventionally in a constant temperature (20-22° C.) and humidity (40%-60%) animal room with a 12/12 h light/dark cycle and free access to food and water. 26 month-old mice were randomized based on the body weight and body condition scores to two groups (vehicle or BGE-105, n=8). 4 month-old female mice were used as an additional control group (vehicle, n=4). Mice were administered P.O. vehicle or BGE-105 at 50 mg/kg (BID) for one week. After completion of dosing, blood samples were collected via retro-orbital bleeding under isoflurane anesthesia into K2-EDTA tubes to prevent coagulation. Mice were euthanized via transcardiac perfusion under isoflurane anesthesia. […]
For quantitative analysis, plasma samples were assessed with Quantikine® enzyme-linked immunosorbent assays (ELISAs) for mouse CXCL1 and CXCL13 (R&D Systems) according to manufacturer's instructions. Optical density of the completed ELISA was imaged using a SpectraMax iD5 (Molecular Devices), sample concentrations were calculated compared to a standard curve, and relative change with age+/−BGE-105 treatment was calculated with young mouse plasma serving as the normalization.

[1] = test system: human patient, iPSC-derived neurons; assay: Neurons from patient derived induced pluripotent stem cells (iPSCs); type: cell-based; conditions: compared to cells not treated with BGE-105
Source text: This study assesses the effect of BGE-105 (or media from other brain cells exposed to BGE-105, such as microglia and astrocytes) in human patient, iPSC-derived neurons improves a variety of functions associated with beneficial neuronal outcomes, including those listed below • i. proliferation and survival • ii. Autophagy • iii. synaptic plasticity • iv. ROS production

Mouse astrocyte cells = assay: Astrocyte gene expression (RT-PCR) after reactive astrocyte cocktail (RAC); type: cell-based
Procedure: Mouse astrocyte cells were seeded on 24-well plates at a low density of approximately 20 k astrocytes per well. To stimulate astrocytes into a reactive state found in aging and neurodegenerative diseases per previous publications (Liddelow et al., 2017; Barbar et al., 2020), a combination of the cytokines TNF-α and IL-1α, and complement factor C1q, were added at 30 ng/mL, 3 ng/mL, and 400 ng/mL, respectively, into astrocyte culture media to make 'reactive astrocyte cocktail' (RAC) media. […] Bachem, Cat. #4029110), BAY-11-7082 (50 μM; Abcam, Cat. #ab141228) or equal volume of vehicle (0.01% DMSO in PBS) (hereafter referred to as 'RAC treatment'). Cells in Groups 3-6 were treated with RAC for 24 hours, with or without the test compounds (n=4 per group). • Group 1: Control [CON] • Group 2: CON+BGE-105 (50 nM) [CON+105] • Group 3: Reactive control treated with RAC only [RAC] • Group 4: RAC+BGE-105 (50 nM) [RAC+105] • Group 5: RAC+Pyrm-Apelin-13 (50 nM) • Group 6: RAC+BAY-11-7082 (NF-κB inhibitor; 50 μM) [RAC+BAY] Media from each tested cell group was collected for cytokine release analysis. Cells were lysed for RNA collection and RT-PCR was performed to synthesis cDNA under standard conditions. Next, transcriptome analysis was performed to determine the expression level of astrocyte genes or astrocyte responsive genes. Changes of expression was normalized to β-actin (FIGS. 8 and 9). Exemplary biomarkers include CCL2, CXCL10, CXCL11, CXCL1, CXCL2, CXCL3, CXCL8, EDN1, […]3, CIS, CTRL, C3, CFB, VEGF, and IL-6.

[2] = test system: 26-month-old female C57BL/6 mice; assay: Age-dependent BBB permeability model, Evans blue assay; type: in vivo, mouse; conditions: 50 mg/kg BID P.O. one week; aged versus aged+BGE-105; p<0.01
Procedure: The mice were handled in accordance with principles and guidelines established by the “Guide for the Care and Use of Laboratory Animals” and overseen by the BioAge Lab's institutional animal care and use committee (IACUC). Mice were housed conventionally in a constant temperature (20-22° C.) and humidity (40%-60%) animal room with a 12/12 h light/dark cycle and free access to food and water.
For assessment of BGE-105 activity, the age-dependent BBB permeability model was established using 26-month-old female C57BL/6 mice. Mice were randomized based on the body weight and body condition scores to two groups (vehicle or BGE-105, n=8). Mice were administered P.O. vehicle (Control) or BGE-105 via P.O. at 50 mg/kg (BID) for one week (7 days). See FIG. 4B for a schematic of the protocol. The BBB permeability was measured via Evans blue assay. Mice were intravenously injected with Evans Blue (2%, 75 ul/30 g BW). […]
Frozen olfactory bulb and hippocampus were placed in 200 μl of extraction buffer (50% trichloroacetic acid in formamide) for 24 hours. […] Endpoint fluorescence was recorded (620 nm excitation, 680 nm emission) with a SpectraMax iD5 (Molecular Devices), normalized to tissue weight, and relative treatment-related change in fluorescence (a measure of blood-brain barrier leakage) was calculated compared to untreated aged mice.

apelin receptor = molecular target: T1, apelin receptor (Homo sapiens, UniProt P35414); conditions: Ason et al., JCI Insight 2020; cited from earlier work
T1 sequence (P35414 1-380): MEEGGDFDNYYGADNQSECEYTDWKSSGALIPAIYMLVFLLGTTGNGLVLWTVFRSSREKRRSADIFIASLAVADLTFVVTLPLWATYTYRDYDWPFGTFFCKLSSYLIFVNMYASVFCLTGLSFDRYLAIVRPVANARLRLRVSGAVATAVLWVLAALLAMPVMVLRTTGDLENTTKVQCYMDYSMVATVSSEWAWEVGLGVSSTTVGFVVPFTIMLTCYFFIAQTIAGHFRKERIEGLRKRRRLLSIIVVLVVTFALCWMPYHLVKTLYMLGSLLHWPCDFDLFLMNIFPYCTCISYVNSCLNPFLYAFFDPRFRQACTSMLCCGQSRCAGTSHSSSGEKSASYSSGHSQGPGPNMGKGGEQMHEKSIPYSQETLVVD

SMILES: COc1cccc(OC)c1-n1c(NS(=O)(=O)[C@@H](C)[C@H](C)c2ncc(C)cn2)nnc1-c1cncc(C)c1 [BGE-105, (2S,3R)—N-(4-(2,6-dimethoxyphenyl)-5-(5-methyl-3-pyridinyl)-4H-1,2,4-triazol-3-yl)-3-(5-methyl-2-pyrimidinyl)-2-butanesulfonamide]
- reduction of CXCL1 concentrations in plasma (26 month-old mice): 35%
- reduction of CXCL13 concentrations in plasma (26 month-old mice): 26%
- survival, differentiation and cellular functioning of stem-cell-derived neurons [1]: improves overall survival, differentiation, and cellular functioning
- expression of biomarkers CXCL1, C3 and IL-6 in control astrocytes (Mouse astrocyte cells; CON+105, BGE-105 50 nM, no RAC): no or minimal impact
- reduction of IL-6 gene expression in RAC-induced reactive astrocytes (Mouse astrocyte cells; RAC+105 (50 nM) versus RAC, 24 hours, p<0.0001): 5-10 fold
- reduction of C3 gene expression in RAC-induced reactive astrocytes (Mouse astrocyte cells; RAC+105 (50 nM) versus RAC, 24 hours, p=0.0015): 10-20 fold
- CXCL1 gene expression in RAC-induced reactive astrocytes (Mouse astrocyte cells; RAC+105 (50 nM) versus RAC, 24 hours, p=0.0204): significantly reduced
- change of age-induced increase in BBB permeability in the OB [2]: −28%
- activation of the apelin receptor (apelin receptor): known to activate

Reference: patent US20240041878A1, “APELIN RECEPTOR MODULATORS FOR TREATMENT OF A DISORDER OR DISEASE ASSOCIATED WITH BBB PERMEABILITY” (BioAge Labs, Inc., priority 2022, published 2024)
